The source of these data is patent US20230009626A1 (ICHNOS SCIENCES S.A., priority 2018, published 2023).

The structures appear in SMILES notation. Where only a bound is given, the exact number is not on record here.

This assay concerns the target HPK1 (MAP4K1) (Homo sapiens, UniProt Q92918). The experiment in a line: FRET Assay for HPK1 (MAP4K1): one step binding assay, displacement of labeled tracer. Particulars: for inhibition at 1 µM: 1 μM compound; for inhibition at 1 µM / inhibition at 10 µM: FRET ratio 665/620, percent of control; for inhibition at 10 µM: 10 μM compound; for IC50: dose response curve, nonlinear regression. In outline:
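Percent inhibition at 1.0 and 10.0 μM and IC50 by nonlinear regression were derived from loss of FRET signal versus control. The signal runs from Eu-anti-GST antibody (4 nM) bound to 10 nM HPK1 kinase to Alexa Fluor 647 Kinase Tracer 222 (20 nM), added after a 15-min on-ice compound pre-incubation. Binding then proceeded 1 h at room temperature in HEPES pH 7.5 buffer with 10 mM MgCl2, 1 mM EGTA, 0.01% Brij-35 and 3% DMSO.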

Sequence of HPK1 (MAP4K1) (Q92918 whole entry): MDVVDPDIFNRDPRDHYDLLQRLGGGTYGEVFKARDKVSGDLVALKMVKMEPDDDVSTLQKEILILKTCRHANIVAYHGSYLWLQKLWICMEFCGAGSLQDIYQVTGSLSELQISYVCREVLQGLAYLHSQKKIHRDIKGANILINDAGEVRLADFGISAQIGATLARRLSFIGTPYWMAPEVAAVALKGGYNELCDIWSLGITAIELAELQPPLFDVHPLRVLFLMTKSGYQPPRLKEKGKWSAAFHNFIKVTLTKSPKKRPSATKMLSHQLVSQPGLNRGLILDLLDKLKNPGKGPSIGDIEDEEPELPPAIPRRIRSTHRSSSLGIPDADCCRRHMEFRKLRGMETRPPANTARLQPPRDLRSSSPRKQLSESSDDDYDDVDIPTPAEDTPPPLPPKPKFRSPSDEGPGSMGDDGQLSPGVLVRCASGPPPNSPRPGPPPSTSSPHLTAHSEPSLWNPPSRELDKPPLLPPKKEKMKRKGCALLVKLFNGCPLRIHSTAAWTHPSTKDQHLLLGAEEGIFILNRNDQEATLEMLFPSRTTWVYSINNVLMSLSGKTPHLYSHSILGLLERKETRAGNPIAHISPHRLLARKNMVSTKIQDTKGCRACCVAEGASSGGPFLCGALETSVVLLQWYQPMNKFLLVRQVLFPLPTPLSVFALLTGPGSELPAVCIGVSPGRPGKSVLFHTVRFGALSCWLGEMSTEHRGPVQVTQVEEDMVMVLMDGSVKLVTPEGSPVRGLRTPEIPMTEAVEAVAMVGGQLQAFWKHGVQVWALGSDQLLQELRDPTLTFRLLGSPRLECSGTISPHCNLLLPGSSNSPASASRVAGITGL

For the compound `C/C(Nc1cc2n(n1)CCOC2)=C1/C(=O)Nc2cnc(-c3cnccc3C)cc21` [Example 146, (Z)-3-(1-((6,7-Dihydro-4H-pyrazolo[5,1-c][1,4]oxazin-2-yl)amino)ethylidene)-5-(4-methylpyridin-3-yl)-1H-pyrrolo[2,3-c]pyridin-2(3H)-one], the inhibition at 1 µM came out at 80.2%, the inhibition at 10 µM came out at 88.7% and the IC50 is below 50 nM.
Regarding `C/C(Nc1ccn(C2CCN(C3COC3)CC2)n1)=C1/C(=O)Nc2cnc(-c3cnccc3C)cc21` [Example 147, (Z)-5-(4-Methylpyridin-3-yl)-3-(1-((1-(1-(oxetan-3-yl)piperidin-4-yl)-1H-pyrazol-3-yl)amino)ethylidene)-1H-pyrrolo[2,3-c]pyridin-2(3H)-one], the inhibition at 1 µM came out at 74.9%, the inhibition at 10 µM was 75.9% and the half-maximal inhibitory concentration (IC50) was below 50 nM.
The like results for `C/C(Nc1cnn(C)c1)=C1/C(=O)Nc2cnc(-c3cncc(F)c3C)cc21` [Example 148, (Z)-5-(5-Fluoro-4-methylpyridin-3-yl)-3-(1-((1-methyl-1H-pyrazol-4-yl)amino)ethylidene)-1H-pyrrolo[2,3-c]pyridin-2(3H)-one] were, in that order, 82.4%, 94% and below 50 nM.
On the same counts, the results for `C/C(Nc1cc2n(n1)CC(=O)N(C(C)C)C2)=C1/C(=O)Nc2cnc(-c3cnccc3C)cc21` [Example 149, (Z)-5-Isopropyl-2-((1-(5-(4-methylpyridin-3-yl)-2-oxo-1H-pyrrolo[2,3-c]pyridin-3(2H)-ylidene)ethyl)amino)-4,5-dihydropyrazolo[1,5-a]pyrazin-6(7H)-one] are 78.7%, 81.7% and below 50 nM.
The like results for `C/C(Nc1cc(C(C)(C)O)n(C)n1)=C1/C(=O)Nc2cnc(-c3cnccc3C)cc21` [Example 150, (Z)-3-(1-((5-(2-Hydroxypropan-2-yl)-1-methyl-1H-pyrazol-3-yl)amino)ethylidene)-5-(4-methylpyridin-3-yl)-1H-pyrrolo[2,3-c]pyridin-2(3H)-one] were, in that order, 86.7%, 86.1% and below 50 nM.
As for `C/C(Nc1cnn(C)c1)=C1/C(=O)Nc2cc(C#N)c(-c3cnccc3C)cc21` [Example 151, (Z)-3-(1-((1-Methyl-1H-pyrazol-4-yl)amino)ethylidene)-5-(4-methylpyridin-3-yl)-2-oxoindoline-6-carbonitrile], the inhibition at 1 µM stood at 85.2%, the inhibition at 10 µM amounted to 65.2% and the IC50 is below 50 nM.
On the same counts, the results for `C/C(Nc1cc(C2CC2)n(C)n1)=C1/C(=O)Nc2cnc(-c3cnccc3C)cc21` [Example 152, (Z)-3-(1-((5-Cyclopropyl-1-methyl-1H-pyrazol-3-yl)amino)ethylidene)-5-(4-methylpyridin-3-yl)-1H-pyrrolo[2,3-c]pyridin-2(3H)-one] are 74.3%, 70.4% and below 50 nM.
On the same counts, the results for `C/C(Nc1cnn(C[C@@H](C)O)c1)=C1/C(=O)Nc2cnc(-c3cnccc3C)cc21` [Example 153, (R,Z)-3-(1-((1-(2-Hydroxypropyl)-1H-pyrazol-4-yl)amino)ethylidene)-5-(4-methylpyridin-3-yl)-1H-pyrrolo[2,3-c]pyridin-2(3H)-one] are 72.5%, 80.9% and below 50 nM.
The like results for `C/C(Nc1ccn(C)n1)=C1/C(=O)Nc2cnc(-c3cncc(F)c3C)cc21` [Example 154, (Z)-5-(5-Fluoro-4-methylpyridin-3-yl)-3-(1-((1-methyl-1H-pyrazol-3-yl)amino)ethylidene)-1H-pyrrolo[2,3-c]pyridin-2(3H)-one] were, in that order, 69%, 82.5% and 100 to 500 nM.
